Measurements: ChEMBL document CHEMBL5154755, “Discovery of Novel Indazoles as Potent and Selective PI3Kδ Inhibitors with High Efficacy for Treatment of Hepatocellular Carcinoma” (J Med Chem, 2022)

How the values were obtained:
[1] = system: HepG2; experiment: cells; conditions: Homo sapiens, HepG2, 72 h
Description: Antiproliferative activity against human HepG2 cells assessed as inhibition of cell growth incubated for 72 hrs by SRB assay

[2] = system: Bel-7402; experiment: Antiproliferative activity against human Bel-7402 cells assessed as inhibition of cell growth incubated for 72 hrs by SRB assay; format: functional, cell-based; conditions: Bel-7402, 72 h
[3] = system: HepG2; experiment: cells; conditions: Homo sapiens, HepG2, 72 h, read-out: INH
[4] = system: Hep 3B2; experiment: cells; conditions: Homo sapiens, Hep3B, 72 h, read-out: INH
[5] = system: Hep 3B2; experiment: Antiproliferative activity against human Hep3B cells assessed as inhibition of cell growth incubated for 72 hrs by SRB assay; format: functional, cell-based
[6] = system: Bel-7402; experiment: cells; conditions: Homo sapiens, Bel-7402, 72 h, read-out: INH
[7] = target: T1, Phosphatidylinositol 4,5-bisphosphate 3-kinase catalytic subunit delta isoform (Homo sapiens, UniProt O00329); experiment: Inhibition of PI3Kdelta (unknown origin) using PIP2 as substrate incubated for 1 hr in presence of ATP by ADP-Glo assay
T1 sequence (O00329 whole entry): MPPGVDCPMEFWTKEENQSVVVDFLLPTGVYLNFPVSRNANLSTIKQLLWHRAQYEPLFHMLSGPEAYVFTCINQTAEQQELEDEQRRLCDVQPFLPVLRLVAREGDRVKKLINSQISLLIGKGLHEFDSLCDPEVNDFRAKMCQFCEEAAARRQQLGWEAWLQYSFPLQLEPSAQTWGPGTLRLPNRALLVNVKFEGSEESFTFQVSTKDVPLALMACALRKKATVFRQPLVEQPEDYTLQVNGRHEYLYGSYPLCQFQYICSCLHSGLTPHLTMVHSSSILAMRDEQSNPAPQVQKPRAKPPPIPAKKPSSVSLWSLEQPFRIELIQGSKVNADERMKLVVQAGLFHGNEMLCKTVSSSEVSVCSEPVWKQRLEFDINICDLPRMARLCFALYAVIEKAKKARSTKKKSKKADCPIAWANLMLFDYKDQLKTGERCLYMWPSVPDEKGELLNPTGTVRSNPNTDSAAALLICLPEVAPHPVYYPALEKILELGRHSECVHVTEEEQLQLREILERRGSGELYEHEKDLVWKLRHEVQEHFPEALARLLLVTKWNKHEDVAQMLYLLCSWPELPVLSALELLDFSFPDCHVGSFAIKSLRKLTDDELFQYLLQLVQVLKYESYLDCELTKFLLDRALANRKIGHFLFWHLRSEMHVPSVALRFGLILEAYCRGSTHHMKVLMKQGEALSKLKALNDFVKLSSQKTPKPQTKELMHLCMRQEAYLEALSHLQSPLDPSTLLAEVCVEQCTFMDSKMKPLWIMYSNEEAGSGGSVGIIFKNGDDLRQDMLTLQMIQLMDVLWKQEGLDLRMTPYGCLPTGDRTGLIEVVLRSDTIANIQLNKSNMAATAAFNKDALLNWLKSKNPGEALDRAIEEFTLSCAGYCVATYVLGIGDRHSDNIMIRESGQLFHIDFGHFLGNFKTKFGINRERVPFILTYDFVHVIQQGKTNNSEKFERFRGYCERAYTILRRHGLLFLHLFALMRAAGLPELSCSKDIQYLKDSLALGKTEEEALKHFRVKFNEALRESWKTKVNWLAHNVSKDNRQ

[8] = target: Phosphatidylinositol 4,5-bisphosphate 3-kinase catalytic subunit alpha isoform (Homo sapiens, UniProt P42336); experiment: Inhibition of PI3Kalpha (unknown origin) using PIP2 as substrate incubated for 1 hr in presence of ATP by ADP-Glo assay
Chain of Phosphatidylinositol 4,5-bisphosphate 3-kinase catalytic subunit alpha isoform (P42336 whole entry, canonical isoform): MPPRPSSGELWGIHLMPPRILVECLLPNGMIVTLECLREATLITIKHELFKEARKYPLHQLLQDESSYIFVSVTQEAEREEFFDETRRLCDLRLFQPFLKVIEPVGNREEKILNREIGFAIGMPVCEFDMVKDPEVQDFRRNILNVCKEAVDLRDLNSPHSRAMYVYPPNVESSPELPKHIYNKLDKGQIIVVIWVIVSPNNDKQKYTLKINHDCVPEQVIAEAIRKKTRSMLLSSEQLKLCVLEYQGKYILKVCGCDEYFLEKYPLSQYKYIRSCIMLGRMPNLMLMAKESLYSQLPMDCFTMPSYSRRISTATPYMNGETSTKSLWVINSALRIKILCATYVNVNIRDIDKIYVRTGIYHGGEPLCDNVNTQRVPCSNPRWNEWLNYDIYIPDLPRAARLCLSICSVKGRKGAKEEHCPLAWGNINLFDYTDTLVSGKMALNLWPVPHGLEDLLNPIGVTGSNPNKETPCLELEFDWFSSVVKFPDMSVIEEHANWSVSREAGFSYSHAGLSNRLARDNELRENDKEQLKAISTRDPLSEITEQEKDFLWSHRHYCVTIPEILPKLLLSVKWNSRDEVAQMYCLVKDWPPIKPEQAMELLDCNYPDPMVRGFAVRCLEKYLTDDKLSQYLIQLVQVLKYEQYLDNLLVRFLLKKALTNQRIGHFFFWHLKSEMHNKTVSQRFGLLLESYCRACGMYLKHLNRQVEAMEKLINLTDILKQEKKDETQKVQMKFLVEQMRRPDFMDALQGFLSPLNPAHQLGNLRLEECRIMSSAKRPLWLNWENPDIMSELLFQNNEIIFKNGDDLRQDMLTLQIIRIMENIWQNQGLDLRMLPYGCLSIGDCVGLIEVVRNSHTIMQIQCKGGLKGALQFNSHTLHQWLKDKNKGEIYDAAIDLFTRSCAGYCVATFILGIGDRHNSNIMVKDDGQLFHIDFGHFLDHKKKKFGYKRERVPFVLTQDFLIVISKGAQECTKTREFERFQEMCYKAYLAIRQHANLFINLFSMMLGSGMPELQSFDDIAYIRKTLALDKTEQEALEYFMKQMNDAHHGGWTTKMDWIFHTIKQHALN

[9] = target: Phosphatidylinositol 4,5-bisphosphate 3-kinase catalytic subunit beta isoform (Homo sapiens, UniProt P42338); experiment: Inhibition of PI3Kbeta (unknown origin) using PIP2 as substrate incubated for 1 hr in presence of ATP by ADP-Glo assay
Chain of Phosphatidylinositol 4,5-bisphosphate 3-kinase catalytic subunit beta isoform (P42338 whole entry, canonical isoform): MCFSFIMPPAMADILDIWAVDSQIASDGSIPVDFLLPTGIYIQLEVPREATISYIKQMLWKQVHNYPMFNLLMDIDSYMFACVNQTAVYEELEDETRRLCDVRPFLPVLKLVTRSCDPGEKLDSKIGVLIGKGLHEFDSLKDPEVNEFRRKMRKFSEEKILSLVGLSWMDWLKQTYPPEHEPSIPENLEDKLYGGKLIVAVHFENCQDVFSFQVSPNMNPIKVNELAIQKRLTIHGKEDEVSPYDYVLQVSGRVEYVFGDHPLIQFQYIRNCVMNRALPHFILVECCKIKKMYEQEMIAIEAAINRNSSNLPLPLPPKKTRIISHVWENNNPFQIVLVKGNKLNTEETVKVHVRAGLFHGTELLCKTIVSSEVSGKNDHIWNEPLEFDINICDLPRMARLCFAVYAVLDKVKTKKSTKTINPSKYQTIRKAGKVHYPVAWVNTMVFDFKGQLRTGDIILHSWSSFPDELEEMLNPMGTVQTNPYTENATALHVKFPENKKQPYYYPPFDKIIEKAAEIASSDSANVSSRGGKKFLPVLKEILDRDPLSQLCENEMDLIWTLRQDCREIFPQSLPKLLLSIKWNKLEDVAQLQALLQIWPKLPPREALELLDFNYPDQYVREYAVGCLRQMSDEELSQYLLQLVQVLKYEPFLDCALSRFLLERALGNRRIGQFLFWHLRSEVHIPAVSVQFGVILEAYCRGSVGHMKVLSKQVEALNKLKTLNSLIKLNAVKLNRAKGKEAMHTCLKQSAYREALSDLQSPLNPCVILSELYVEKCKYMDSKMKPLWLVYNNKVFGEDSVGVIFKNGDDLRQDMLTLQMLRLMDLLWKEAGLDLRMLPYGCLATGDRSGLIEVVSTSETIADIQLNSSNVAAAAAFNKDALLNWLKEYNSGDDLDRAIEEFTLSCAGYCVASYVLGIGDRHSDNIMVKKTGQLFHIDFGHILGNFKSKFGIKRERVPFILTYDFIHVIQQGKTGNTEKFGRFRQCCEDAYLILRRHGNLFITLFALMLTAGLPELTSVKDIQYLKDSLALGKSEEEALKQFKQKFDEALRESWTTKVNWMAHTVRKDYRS

[10] = target: Phosphatidylinositol 4,5-bisphosphate 3-kinase catalytic subunit gamma isoform (Homo sapiens, UniProt P48736); experiment: Inhibition of PI3Kgamma (unknown origin) using PIP2 as substrate incubated for 1 hr in presence of ATP by ADP-Glo assay
Chain of Phosphatidylinositol 4,5-bisphosphate 3-kinase catalytic subunit gamma isoform (P48736 whole entry, canonical isoform): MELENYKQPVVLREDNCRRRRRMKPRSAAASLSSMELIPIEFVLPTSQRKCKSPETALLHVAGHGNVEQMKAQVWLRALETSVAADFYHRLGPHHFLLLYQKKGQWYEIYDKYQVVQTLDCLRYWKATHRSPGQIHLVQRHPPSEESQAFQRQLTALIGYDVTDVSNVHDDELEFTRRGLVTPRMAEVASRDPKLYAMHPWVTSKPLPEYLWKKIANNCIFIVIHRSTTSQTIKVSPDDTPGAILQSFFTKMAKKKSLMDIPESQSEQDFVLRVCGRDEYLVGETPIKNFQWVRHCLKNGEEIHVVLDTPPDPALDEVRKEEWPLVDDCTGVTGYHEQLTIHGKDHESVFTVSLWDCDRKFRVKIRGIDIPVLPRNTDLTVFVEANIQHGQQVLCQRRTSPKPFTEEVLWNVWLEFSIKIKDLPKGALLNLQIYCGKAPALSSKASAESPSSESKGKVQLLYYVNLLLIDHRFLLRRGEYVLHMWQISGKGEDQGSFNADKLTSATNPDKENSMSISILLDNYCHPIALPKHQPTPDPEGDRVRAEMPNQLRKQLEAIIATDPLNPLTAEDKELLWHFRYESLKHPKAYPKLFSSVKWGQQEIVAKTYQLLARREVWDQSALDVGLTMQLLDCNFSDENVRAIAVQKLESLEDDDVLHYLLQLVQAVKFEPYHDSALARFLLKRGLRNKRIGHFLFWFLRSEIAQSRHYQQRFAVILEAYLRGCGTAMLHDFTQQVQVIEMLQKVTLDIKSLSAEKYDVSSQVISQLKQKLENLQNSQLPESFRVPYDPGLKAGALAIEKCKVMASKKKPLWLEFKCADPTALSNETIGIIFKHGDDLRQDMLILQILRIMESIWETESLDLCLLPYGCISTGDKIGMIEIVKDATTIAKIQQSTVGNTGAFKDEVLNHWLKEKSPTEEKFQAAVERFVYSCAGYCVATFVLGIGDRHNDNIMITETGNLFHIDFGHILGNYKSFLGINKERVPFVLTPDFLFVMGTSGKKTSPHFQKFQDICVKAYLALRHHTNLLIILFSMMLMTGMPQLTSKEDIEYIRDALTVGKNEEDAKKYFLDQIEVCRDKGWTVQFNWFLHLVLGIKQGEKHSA

SMILES	IC50 [1]	IC50 [2]	IC50 [7]	IC50 [8]	IC50 [9]	IC50 [10]	inhibition at 10 µM [3]	inhibition at 10 µM [4]	IC50 [5]	inhibition at 10 µM [6]
C[C@H](Nc1nc(N)nc(N)c1C#N)c1nn(-c2cccnc2)c2cc(C(F)(F)F)ccc12	1.68 µM	3.19 µM	0.286 µM				36%	69%	9.71 µM	60%
C[C@H](Nc1ncnc2[nH]cnc12)c1nn(-c2cccnc2)c2cc(Cl)ccc12	> 40 µM	> 40 µM	0.0077 µM				13%	13%	> 40 µM	17%
CC[C@H](Nc1nc(N)nc(N)c1C#N)c1nn(-c2cccnc2)c2cc(F)ccc12	> 40 µM	> 40 µM	0.0021 µM				28%	32%	37.5 µM	29%
C[C@H](Nc1ncnc2[nH]cnc12)c1nn(-c2cccc(F)c2)c2cc(F)ccc12	32.3 µM	> 40 µM	0.485 µM				33%	28%	> 40 µM	-17%
CC(C)[C@H](Nc1ncnc2[nH]cnc12)c1nn(-c2cccnc2)c2cc(F)ccc12	> 40 µM	> 40 µM	0.072 µM				16%	4%	> 40 µM	5%
C[C@H](Nc1ncnc2[nH]cnc12)c1nn(-c2ccncc2)c2cc(F)ccc12	23.1 µM	> 40 µM	0.052 µM				47%	5%	21.4 µM	16%
CC(Nc1ncnc2[nH]cnc12)c1nn(-c2cccnc2)c2ccccc12 (racemic)	26.2 µM	16.1 µM	0.392 µM				13%	9%	40.3 µM	4%
C[C@H](Nc1ncnc2[nH]cnc12)c1nn(-c2ccc(C#N)cc2)c2cc(F)ccc12	15.1 µM	31.5 µM	0.22 µM				57%	46%	13.5 µM	0%
CC[C@H](Nc1nc(N)nc(N)c1C#N)c1nn(-c2cccnc2)c2cc(Cl)ccc12	4.77 µM	5.59 µM	0.0012 µM	0.576 µM	0.031 µM	> 1 µM	59%	56%	12.1 µM	56%
C[C@H](Nc1ncnc2[nH]cnc12)c1nn(-c2cccnc2)c2cc(F)ccc12	37.5 µM	> 40 µM	0.038 µM				23%	20%	34.5 µM	8%
C[C@H](Nc1ncnc2[nH]cnc12)c1nn(-c2ccccn2)c2cc(F)ccc12	29.9 µM	> 40 µM	2.28 µM				22%	12%	> 40 µM	7%

Now from value to compound, other results behind:

IC50 [1]	IC50 [2]	IC50 [7]	IC50 [8]	IC50 [9]	IC50 [10]	SMILES	inhibition at 10 µM [3]	inhibition at 10 µM [4]	IC50 [5]	inhibition at 10 µM [6]
23.2 µM	29.8 µM	0.0037 µM				C[C@H](Nc1nc(N)nc(N)c1C#N)c1nn(-c2cccnc2)c2cc(F)ccc12	29%	30%	23.8 µM	15%
7.48 µM	8.31 µM	0.0057 µM				C[C@H](Nc1nc(N)nc(N)c1C#N)c1nn(-c2ccncc2)c2cc(F)ccc12	84%	50%	11.6 µM	43%
> 40 µM	> 40 µM	> 10 µM				C[C@H](Nc1ncccc1C#N)c1nn(-c2cccnc2)c2cc(F)ccc12	24%	10%	> 40 µM	11%
> 40 µM	> 40 µM	0.274 µM				Cc1ccc2c(c1)c([C@H](C)Nc1ncnc3[nH]cnc13)nn2-c1cccnc1	18%	8%	> 40 µM	-10%
25.4 µM	37.4 µM	0.021 µM				C[C@H](Nc1ncnc(N)c1C#N)c1nn(-c2cccnc2)c2cc(F)ccc12	56%	30%	19.2 µM	-4%
1.88 µM	4.46 µM	0.0021 µM	> 1 µM	0.047 µM	> 1 µM	C[C@H](Nc1nc(N)nc(N)c1C#N)c1nn(-c2cccc(S(C)(=O)=O)c2)c2cc(Cl)ccc12	56%	72%	5.11 µM	47%
33.9 µM	29 µM	0.059 µM				CC[C@H](Nc1ncnc2[nH]cnc12)c1nn(-c2cccnc2)c2cc(F)ccc12	26%	4%	> 40 µM	12%
14.8 µM	20 µM	0.0123 µM				C[C@H](Nc1ncnc2[nH]cnc12)c1nn(-c2cccc(S(C)(=O)=O)c2)c2cc(F)ccc12	23%	11%	13 µM	-16%
41.9 µM	31.9 µM	0.101 µM				C[C@H](Nc1ncnc2[nH]cnc12)c1nn(-c2cccnc2)c2ccc(F)cc12	8%	13%	40.1 µM	-22%
20.6 µM	11.2 µM	0.038 µM				C[C@H](Nc1ncnc2[nH]cnc12)c1nn(-c2cccnc2)c2ccccc12	62%	21%	36.6 µM	40%
> 40 µM	> 40 µM	0.039 µM				C[C@H](Nc1nc(N)nc2[nH]cnc12)c1nn(-c2cccnc2)c2cc(F)ccc12	11%	14%	> 40 µM	-5%
19.1 µM	22.1 µM	0.0026 µM				C[C@H](Nc1nc(N)nc(N)c1C#N)c1nn(-c2cccc(S(C)(=O)=O)c2)c2cc(F)ccc12	24%	36%	19.7 µM	14%
22.1 µM	> 40 µM	0.423 µM				C[C@H](Nc1ncnc2[nH]cnc12)c1nn(-c2cc(F)cc(F)c2)c2cc(F)ccc12	30%	14%	> 40 µM	-8%
32.5 µM	34.6 µM	0.004 µM				C[C@H](Nc1nc(N)nc(N)c1C#N)c1nn(-c2cccnc2)c2ccccc12	10%	20%	26.5 µM	12%
